According to patent US20180282279A1, “Pantothenamide Analogues” (Radboud Universitair Medisch Centrum, priority 2014, published 2018):
In brackets after ≈: the same amount, converted by molar mass.

Key:
[1] = system: Plasmodium falciparum NF54 parasites; assay: P. falciparum asexual blood stage replication assay (SYBR Green); assay type: cell-based; details: NF54, 10% human serum, 72 incubation
Experimental: Compounds were tested on their ability to inhibit replication of the human malaria parasite Plasmodium falciparum. To this end, Plasmodium falciparum NF54 parasites were cultured in RPMI1640 medium supplemented with 367 μM hypoxanthine, 25 mM HEPES, 25 mM sodiumbicarbonate and 10% human type A serum in an automated large-scale culture system as described before (Transactions of the Royal Society of Tropical Medicine and Hygiene, 1982. 76: p. 812-818). Compounds were diluted in DMSO and subsequently in culture medium to reach a DMSO concentration of 0.2%. 50 μl of diluted compound was transferred to a black 96 well plate. A culture of P. falciparum strain NF54 malaria parasites was diluted to a parasitaemia of 0.5% and a hematocrit of 3%. 50 μl of this diluted culture was added to each well in the 96 well plate._The outermost wells of the plate were filled with sterile water to prevent evaporation. The established antimalarial dihydroartemisinin (DHA) in DMSO acted as a positive control (MIN signal), and 0.1% DMSO acted as a negative control (MAX signal). The plates were incubated for 72 at 37° C., 3% 02, 5% CO2, 93% N2. Changes in parasite replication relative to the controls were monitored using the DNA-marker SYBR Green as described previously (Antimicrob Agents Chemother 48:1803-6). Data were analyzed by logistic regression using the formula: Y=Bottom+(Top-Bottom)/(1+10̂((Log IC50−X)*HillSlope)) and a least squares method to find the best fit.
Using similar methods, IC50 values were determined for a variety of inverted pantothenamides, as listed in table 1 (see section: ‘Detailed description of the invention’)

[2] = system: Staphylococcus epidermidis; assay: Bacterial growth assay and MIC determination, S. epidermidis; assay type: cell-based; details: Staphylococcus epidermidis; Table 1; most sensitive species S. epidermidis (SE); read-out: MIC (μg/ml) for most sensitive bacterial species
Experimental: (§1) Strains of Escherichia coli, Staphylococcus aureus and Staphylococcus epidermidis, were grown overnight in 1% Bacto tryptone medium (BD, Sparks, Md.). Streptococcus pyogenes was grown overnight in Bacto Todd Hewitt Broth medium (BD, Sparks, Md.). Cultures were then diluted 1:1,000 in fresh assay medium supplemented with or without 20% fetal bovine serum (FBS; HyClone, Celbio, Logan, Utah) and added to 96-well sterile enzyme-linked immunosorbent assay (ELISA) plates (100 μl per well). The compounds to be tested were diluted in the medium without serum and added to the bacteria (100 μl per well). Plates were incubated at 37° C., and bacterial growth was monitored over time by reading the optical density at 490 nm using a microplate reader (model 450; Bio-Rad Laboratories Inc., Hercules, Calif.). Streptococcus pneumoniae strains were grown to mid-log phase (OD620 of 0.3) and stored in 15% glycerol at […] till further use. Minimal inhibitory concentration (MIC) of antibiotics was determined according to standard procedures. Bacteria were diluted 10-fold in Mueller-Hinton medium (BD, Sparks, Md.) and added to 96-well sterile ELISA plates (150 μl per well). The compounds to be tested were diluted in the medium without serum and added to the bacteria (150 μl per well). Plates were incubated overnight at 37° C. in 5% CO2. The MIC was defined as the lowest concentration of compound at which no growth was visible with the naked eye.

[3] = system: S. aureus (SA), S. epidermidis (SE), S. pyogenes (SP), S. pneumoniae (SPn); assay: MIC for most sensitive bacterial species (panel); assay type: cell-based; details: Table 1; no species named; tested for SA, SE, SP and SPn; read-out: MIC (μg/ml) for most sensitive bacterial species
Experimental: as §1

Streptococcus pyogenes = assay: Bacterial growth assay and MIC determination, S. pyogenes; assay type: cell-based; details: Streptococcus pyogenes; Table 1; most sensitive species S. pyogenes (SP); read-out: MIC (μg/ml) for most sensitive bacterial species
Experimental: as §1

Staphylococcus aureus = assay: Bacterial growth assay and MIC determination, S. aureus; assay type: cell-based; details: Staphylococcus aureus, Table 1; most sensitive species S. aureus (SA); read-out: MIC (μg/ml) for most sensitive bacterial species
Experimental: as §1

[4] = system: P. falciparum gametocytes; assay: microbe, parasite or virus in culture; assay type: cell-based, Plasmodium falciparum; details: Plasmodium falciparum; 72 hour incubation; read-out: Gametocyte viability (pLDH) IC50
Experimental: Compounds were tested for their ability to affect the viability of gametocytes, the sexually committed blood stages of P. falciparum that underlie transmission to the mosquito vector. To this end, two different assays were performed. The first assay monitored pLDH activity as a measure of viability of gametocytes (J Antimicrob Chemother. 2013 September; 68(9):2048-58). The second assay monitored the ability of gametocytes to form a female gamete by detection of the gamete-specific marker Pfs25. Plasmodium falciparum NF54 parasites were cultured in RPMI1640 medium supplemented with 367 μM hypoxanthine, 25 mM HEPES, 25 mM sodiumbicarbonate and 10% human type A serum in an automated large-scale culture system as described before (Transactions of the Royal Society of Tropical Medicine and Hygiene, 1982. 76: p. 812-818). Cultures were treated with 50 mM N-acetyl-D-glucosamine from day 4 till day 9 to kill asexual parasites. On day 11 gametocytes were isolated by discontinuous 63% Percoll gradient centrifugation. Compounds were diluted in DMSO and subsequently in culture medium to reach a DMSO concentration of 0.2%. To measure the effect of compounds of pLDH activity, gametocytes were seeded at a density of 3.5×10^4 gametocytes per well in a black 384 well plate in 30 μl of culture medium, and 30 μl of diluted compound was added. Following a 72 hour incubation at 37° C., 98% humidity, 93% N2, 4% CO2 and 3% O2, gametocyte viability was measured by a modified plasmodium lactate dehydrogenase assay by using resazurin as a substrate as previously described (Nature, 2013. 504(7479): p. 248-53). Assays were performed in quadruplicate (two different plates with two different gametocyte batches) and all plates included controls MIN (1 μM DHA), MAX (0.1% DMSO) and a serial dilution of reference compound dihydroartemisinin (DHA).

[5] = system: P. falciparum gametocytes; assay: Gametocyte female gametogenesis capacity assay (Pfs25 AlphaLISA); assay type: cell-based; details: Plasmodium falciparum; 72 hours incubation, Table 3; read-out: Gametocyte gametogenesis capacity (Pfs25) IC50
Experimental: To monitor compound effects on the ability of a gametocyte to form a female gamete, day 11 (stage IV) gametocytes were seeded at a density of 4×10^5 gametocytes per well in a V-bottom plate in 50 μl culture medium. 50 μl of diluted compound was added to the gametocytes (0.1% DMSO final concentration) and plates were incubated for 72 hours at 37° C., 98% humidity, 93% N2, 4% CO2 and 3% O2. Subsequently, gametogenesis was induced by adding xanthurenic acid to a final concentration of 40 μM and plates were incubated for 16 hours at 20° C. Gametes were detected in a homogeneous proximity immunoassay on basis of Pfs25 expression by use of AlphaLISA technology (Perkin Elmer). All steps were performed at 20° C. Gametes were washed twice with PBS, lysed for 15 min in 10 μl 10 mM Tris pH 8.0/1% laurylsarcosyl/1 mM phenylmethanesulfonyl fluoride and combined with 10 μl 5 nM biotinylated mouse anti-Pfs25 monoclonal antibody 32F6244 in a white 384 well optiplate (Perkin Elmer). After 1 hour incubation 15 μl of 33 μg/ml acceptorbeads coated with mouse anti-Pfs25 monoclonal antibody 32F81 were added. After 1 hour incubation, 15 μl 33 μg/ml Streptavidin-conjugated donorbeads were added. Finally, after 1 hour incubation luminescence signals were monitored at the 615 nm emission wavelength following excitation at 680 nm using a fluorometer (Biotek Synergy 2). All compounds were tested in duplicate (24 hr) or triplicate (1 and 72 hr). Controls included MIN (0.1 μM epoxomicin) and MAX (0.1% DMSO). Data were analyzed by logistic regression using the formula: Y=Bottom+(Top−Bottom)/(1+10̂((Log IC50−X)*HillSlope)) and a least squares method to find the best fit.

Question: For CC(C)(CO)[C@@H](O)C(=O)NCCNC(=O)/C=C/c1ccccc1 [CXP18.6-048], which IC50 [1] is on record?
Answer: 2.2 µM

Question: And the MIC [2]?
Answer: 16 µg/mL (≈ 49.9 µM)

Question: How did the IC50 [1] turn out when C[C@@H](CNC(=O)[C@H](O)C(C)(C)CO)NC(=O)CCc1ccccc1F [MMV689258] was run?
Answer: 0.004 µM

Question: And the MIC [3]?
Answer: > 32 µg/mL

Question: With C=CCCC(=O)NCCNC(=O)[C@H](O)C(C)(C)CO [CXP14.18-007] as the compound, how does the IC50 [1] read?
Answer: 5.15 µM

Question: And the MIC (Streptococcus pyogenes)?
Answer: 16 µg/mL (≈ 58.7 µM)

Question: What does the source list for CC(C)(CO)[C@@H](O)C(=O)NCCNC(=O)Cc1ccccc1 [CXP18.6-007]?
Answer: IC50 [1]: 3.9 µM; MIC (Streptococcus pyogenes): 16 µg/mL (≈ 51.9 µM)

Question: With CC(C)(CO)[C@@H](O)C(=O)NCCNC(=O)CCCc1ccccc1 [CXP18.6-008] as the compound, how does the IC50 [1] read?
Answer: 0.57 µM

Question: And the MIC [2]?
Answer: 16 µg/mL (≈ 47.6 µM)

Question: C=CCCCCC(=O)NCCNC(=O)[C@H](O)C(C)(C)CO [CXP14.18-010] was tested. Which IC50 [1] did it give?
Answer: 0.71 µM

Question: And the MIC (Streptococcus pyogenes)?
Answer: 16 µg/mL (≈ 53.3 µM)

Question: For CCCSCC(=O)NCCNC(=O)[C@H](O)C(C)(C)CO [CXP14.18-037], which IC50 [1] is on record?
Answer: 1.34 µM

Question: And the MIC (Streptococcus pyogenes)?
Answer: 4 µg/mL (≈ 13.1 µM)

Question: What does the source list for CC(C)(CO)[C@@H](O)C(=O)NCCNC(=O)CCc1ccc(F)cc1F [CXP18.6-069]?
Answer: IC50 [1]: 0.11 µM; MIC [2]: 4 µg/mL (≈ 11.2 µM)

Question: What does the source list for COc1ccc(CCC(=O)NCCNC(=O)[C@H](O)C(C)(C)CO)cc1 [CXP18.6-022]?
Answer: IC50 [1]: 1 µM; MIC [3]: > 32 µg/mL

Question: Which results are given for C=CCCCC(=O)NCCNC(=O)[C@H](O)C(C)(C)CO [CXP14.18-008]?
Answer: IC50 [1]: 0.74 µM; MIC (Streptococcus pyogenes): 16 µg/mL (≈ 55.9 µM)

Question: CC(C)(CO)[C@@H](O)C(=O)NCCCNC(=O)Cc1ccccc1 [CXP18.6-009] was tested. Which IC50 [1] did it give?
Answer: 9.2 µM

Question: And the MIC [3]?
Answer: > 32 µg/mL

Question: With C[C@H](CNC(=O)[C@H](O)C(C)(C)CO)NC(=O)CCc1ccccc1F [MMV689260] as the compound, how does the IC50 [1] read?
Answer: 0.21 µM

Question: And the MIC [3]?
Answer: > 32 µg/mL

Question: CC(C)(CO)[C@@H](O)C(=O)NCCNC(=O)CCc1ccccn1 [CXP18.6-055] was tested. Which IC50 [1] did it give?
Answer: 1.6 µM

Question: What about the MIC [2] of the same compound?
Answer: 32 µg/mL (≈ 99 µM)

Question: Which results are given for CC(C)(CO)[C@@H](O)C(=O)NCCNC(=O)CCc1ccco1 [CXP18.6-057]?
Answer: IC50 [1]: 0.4 µM; MIC (Staphylococcus aureus): 16 µg/mL (≈ 51.2 µM); MIC [2]: 16 µg/mL (≈ 51.2 µM)

Question: What does the source list for C=CC(C)CC(=O)NCCNC(=O)[C@H](O)C(C)(C)CO (stereo partly drawn) [CXP14.18-014]?
Answer: IC50 [1]: 4.93 µM; MIC (Streptococcus pyogenes): 16 µg/mL (≈ 55.9 µM)

Question: What does the source list for CC(C)(CO)[C@@H](O)C(=O)NCCNC(=O)CCc1ccc(F)cc1 [CXP18.6-019]?
Answer: IC50 [1]: 0.42 µM; MIC [2]: 32 µg/mL (≈ 94 µM)

Question: CC(C)(CO)[C@@H](O)C(=O)NCCCNC(=O)CCc1ccccc1 [CXP18.6-010] was tested. Which IC50 [1] did it give?
Answer: 7.5 µM

Question: And the MIC [3]?
Answer: > 32 µg/mL

Question: CC(C)(CO)[C@@H](O)C(=O)NCCNC(=O)CCc1ccsc1 [CXP18.6-046] was tested. Which IC50 [1] did it give?
Answer: 0.057 µM

Question: And the MIC (Streptococcus pyogenes)?
Answer: 32 µg/mL (≈ 97.4 µM)

Question: What about the IC50 [4] of the same compound?
Answer: > 10000 nM

Question: And the IC50 [5]?
Answer: 401 nM
